# Reference: PubChem BioAssay AID2060601 (Molecular Pharmacology Branch, DTP, NCI, 2025)
# “And” between values parts separate entries of the source, which are not always exact repeats. Identical values can stand only once.
# Test system: 874868-142-R-J2-PDC complex spheroids, growth % test/control
# Assay: Anticancer human tumor 874868-142-R-J2-PDC patient-derived head and neck squamous carcinoma cell line growth inhibition [CLK]
# Details: for viability, T/C: stronger effect = lower value
# In short: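 Multi-cell-type spheroids combined patient-derived tumor cells with HUVEC endothelial cells and human mesenchymal stem cells. Paired agents were dosed in half-log steps down from about clinical Cmax, or from 10 microM where Cmax was unknown.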
# [1] = curve of first compound, second compound 0.0316 µM
# [2] = curve of first compound, second compound 0.1 µM
# [3] = curve of first compound, second compound 0.316 µM
# [4] = curve of first compound, second compound 1 µM
# [5] = curve of first compound, second compound 3.16 µM
# [6] = curve of first compound, second compound 10 µM
# [7] = second compound 0.0316 µM, first compound 0.0316 µM
# [8] = second compound 0.0316 µM, first compound 0.1 µM
# [9] = second compound 0.0316 µM, first compound 0.316 µM
# [10] = second compound 0.0316 µM, first compound 1 µM
# [11] = second compound 0.0316 µM, first compound 3.16 µM
# [12] = second compound 0.0316 µM, first compound 10 µM
# [13] = second compound 0.1 µM, first compound 0.0316 µM
# [14] = second compound 0.1 µM, first compound 0.1 µM
# [15] = second compound 0.1 µM, first compound 0.316 µM
# [16] = second compound 0.1 µM, first compound 1 µM
# [17] = second compound 0.1 µM, first compound 3.16 µM
# [18] = second compound 0.1 µM, first compound 10 µM
# [19] = second compound 0.316 µM, first compound 0.0316 µM
# [20] = second compound 0.316 µM, first compound 0.1 µM
# [21] = second compound 0.316 µM, first compound 0.316 µM
# [22] = second compound 0.316 µM, first compound 1 µM
# [23] = second compound 0.316 µM, first compound 3.16 µM
# [24] = second compound 0.316 µM, first compound 10 µM
# [25] = second compound 1 µM, first compound 0.0316 µM
# [26] = second compound 1 µM, first compound 0.1 µM
# [27] = second compound 1 µM, first compound 0.316 µM
# [28] = second compound 1 µM, first compound 1 µM
# [29] = second compound 1 µM, first compound 3.16 µM
# [30] = second compound 1 µM, first compound 10 µM
# [31] = second compound 3.16 µM, first compound 0.0316 µM
# [32] = second compound 3.16 µM, first compound 0.1 µM
# [33] = second compound 3.16 µM, first compound 0.316 µM
# [34] = second compound 3.16 µM, first compound 1 µM
# [35] = second compound 3.16 µM, first compound 3.16 µM
# [36] = second compound 3.16 µM, first compound 10 µM
# [37] = second compound 10 µM, first compound 0.0316 µM
# [38] = second compound 10 µM, first compound 0.1 µM
# [39] = second compound 10 µM, first compound 0.316 µM
# [40] = second compound 10 µM, first compound 1 µM
# [41] = second compound 10 µM, first compound 3.16 µM
# [42] = second compound 10 µM, first compound 10 µM
# 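Note: spheroids exposed to the compounds for 7 days.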
# 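Throughout, for viability, T/C: 100% = DMSO vehicle control viability.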
structure (smiles),measurement,setting,value
COc1cccc2c1C(=O)c1c(O)c3c(c(O)c1C2=O)CC(O)(C(=O)CO)CC3OC1CC(N)C(O)C(C)O1 (centres undefined) + CN1CCN(c2cc(C(=O)Nc3cc4cc(-c5cnn(C)c5)ccc4cn3)ccn2)CC1,IC50,[1],87.3 nM
same,IC50,[2],46.7 nM
same,IC50,[3],< 31.6 nM
same,IC50,[4],< 31.6 nM
same,IC50,[5],< 31.6 nM
same,IC50,[6],< 31.6 nM
same,"viability, T/C",[7],63.8%
same,"viability, T/C",[8],45.1%
same,"viability, T/C",[9],28.2%
same,"viability, T/C",[10],1.26%
same,"viability, T/C",[11],0.13%
same,"viability, T/C",[12],0.12%
same,"viability, T/C",[13],55.6%
same,"viability, T/C",[14],38.7%
same,"viability, T/C",[15],20.3%
same,"viability, T/C",[16],1.08%
same,"viability, T/C",[17],0.17%
same,"viability, T/C",[18],0.22%
same,"viability, T/C",[19],14.6%
same,"viability, T/C",[20],12.6%
same,"viability, T/C",[21],3.13%
same,"viability, T/C",[22],0.26%
same,"viability, T/C",[23],0.13%
same,"viability, T/C",[24],0.18%
same,"viability, T/C",[25],0.21%
same,"viability, T/C",[26],0.85%
same,"viability, T/C",[27],0.41%
same,"viability, T/C",[28],0.34%
same,"viability, T/C",[29],0.12%
same,"viability, T/C",[30],0.14%
same,"viability, T/C",[31],0.22%
same,"viability, T/C",[32],0.15%
same,"viability, T/C",[33],2.26%
same,"viability, T/C",[34],0.14%
same,"viability, T/C",[35],0.21%
same,"viability, T/C",[36],0.12%
same,"viability, T/C",[37],0.07%
same,"viability, T/C",[38],0.94%
same,"viability, T/C",[39],0.15%
same,"viability, T/C",[40],0.12%
same,"viability, T/C",[41],0.14%
same,"viability, T/C",[42],0.67%
COc1ccc([C@@H](O)c2cc(-c3ncnc4cc(N5CCOCC5)ccc34)c(F)cc2Cl)nn1,"viability, T/C",compound 0.0316 µM,93.7% and 87.2%
same,"viability, T/C",compound 0.1 µM,92% and 97.7%
same,"viability, T/C",compound 0.316 µM,84.4% and 85%
same,"viability, T/C",compound 1 µM,67.6% and 79.7%
same,"viability, T/C",compound 3.16 µM,40.5% and 54.6%
same,"viability, T/C",compound 10 µM,24.7% and 26.3%
same,IC50,curve of compound,2120 nM and 3830 nM
C=CC(=O)N1CCN(c2nc(=O)n(-c3c(C)ccnc3C(C)C)c3nc(-c4c(O)cccc4F)c(F)cc23)C(C)C1 (centres undefined),"viability, T/C",compound 0.0316 µM,109% and 92.4%
same,"viability, T/C",compound 0.1 µM,84.9% and 96%
same,"viability, T/C",compound 0.316 µM,109% and 104%
same,"viability, T/C",compound 1 µM,119% and 104%
same,"viability, T/C",compound 3.16 µM,133% and 131%
same,"viability, T/C",compound 10 µM,114% and 88.2%
same,IC50,curve of compound,> 10000 nM
COC1C=CCC(C)C(C)S(=O)(=O)NC(=O)c2ccc3c(c2)N(CC2CCC21)CC1(CCCc2cc(Cl)ccc21)CO3 (centres undefined),"viability, T/C",compound 0.0316 µM,103% and 104%
same,"viability, T/C",compound 0.1 µM,72.9% and 83.5%
same,"viability, T/C",compound 0.316 µM,65.5% and 53.1%
same,"viability, T/C",compound 1 µM,50.5% and 46.5%
same,"viability, T/C",compound 3.16 µM,25.1% and 30.6%
same,"viability, T/C",compound 10 µM,12.7% and 13.8%
same,IC50,curve of compound,756 nM and 631 nM
Nc1ccn(C2OC(CO)C(O)C2(F)F)c(=O)n1 (centres undefined) + CN1CCN(c2cc(C(=O)Nc3cc4cc(-c5cnn(C)c5)ccc4cn3)ccn2)CC1,IC50,[1],489 nM
same,IC50,[2],463 nM
same,IC50,[3],< 31.6 nM
same,IC50,[4],< 31.6 nM
same,IC50,[5],< 31.6 nM
same,IC50,[6],< 31.6 nM
same,"viability, T/C",[7],80.5%
same,"viability, T/C",[8],72.9%
same,"viability, T/C",[9],58.7%
same,"viability, T/C",[10],37.6%
same,"viability, T/C",[11],20.5%
same,"viability, T/C",[12],26.1%
same,"viability, T/C",[13],62.2%
same,"viability, T/C",[14],70.5%
same,"viability, T/C",[15],61.4%
same,"viability, T/C",[16],26.8%
same,"viability, T/C",[17],19.9%
same,"viability, T/C",[18],24.1%
same,"viability, T/C",[19],14.3%
same,"viability, T/C",[20],14.6%
same,"viability, T/C",[21],11.8%
same,"viability, T/C",[22],9.83%
same,"viability, T/C",[23],11.6%
same,"viability, T/C",[24],11.8%
same,"viability, T/C",[25],0.24%
same,"viability, T/C",[26],0.22%
same,"viability, T/C",[27],0.33%
same,"viability, T/C",[28],0.18%
same,"viability, T/C",[29],0.28%
same,"viability, T/C",[30],0.2%
same,"viability, T/C",[31],0.26%
same,"viability, T/C",[32],0.23%
same,"viability, T/C",[33],0.16%
same,"viability, T/C",[34],0.18%
same,"viability, T/C",[35],0.19%
same,"viability, T/C",[36],0.43%
same,"viability, T/C",[37],0.14%
same,"viability, T/C",[38],0.19%
same,"viability, T/C",[39],0.23%
same,"viability, T/C",[40],0.2%
same,"viability, T/C",[41],0.25%
same,"viability, T/C",[42],1.04%
CNC(=O)c1ccc(Nc2nc(OC3CCCC3)c3c(-c4ccc5nc(C)oc5c4)c[nH]c3n2)c(OC)c1,"viability, T/C",compound 0.1 µM,89.6% [middle of 11 runs]
same,"viability, T/C",compound 0.316 µM,60.3% [middle of 11 runs]
same,"viability, T/C",compound 1 µM,50% [middle of 10 runs]
same,"viability, T/C",compound 3.16 µM,44.5% [middle of 11 runs]
same,"viability, T/C",compound 10 µM,42.6% [middle of 11 runs]
Nc1ccccc1NC(=O)c1ccc(CNC(=O)OCc2cccnc2)cc1 + CN1CCN(c2cc(C(=O)Nc3cc4cc(-c5cnn(C)c5)ccc4cn3)ccn2)CC1,IC50,[1],7470 nM
same,IC50,[2],4500 nM
same,IC50,[3],< 31.6 nM
same,IC50,[4],< 31.6 nM
same,IC50,[5],< 31.6 nM
same,IC50,[6],< 31.6 nM
same,"viability, T/C",[7],86.7%
same,"viability, T/C",[8],79.6%
same,"viability, T/C",[9],88.7%
same,"viability, T/C",[10],116%
same,"viability, T/C",[11],94.5%
same,"viability, T/C",[12],35.2%
same,"viability, T/C",[13],73.2%
same,"viability, T/C",[14],67.8%
same,"viability, T/C",[15],72.5%
same,"viability, T/C",[16],102%
same,"viability, T/C",[17],62.8%
same,"viability, T/C",[18],21.2%
same,"viability, T/C",[19],13.4%
same,"viability, T/C",[20],15.8%
same,"viability, T/C",[21],15.8%
same,"viability, T/C",[22],17.9%
same,"viability, T/C",[23],7.51%
same,"viability, T/C",[24],0.19%
same,"viability, T/C",[25],0.32%
same,"viability, T/C",[26],6.56%
same,"viability, T/C",[27],0.28%
same,"viability, T/C",[28],0.17%
same,"viability, T/C",[29],0.12%
same,"viability, T/C",[30],2.14%
same,"viability, T/C",[31],0.23%
same,"viability, T/C",[32],0.27%
same,"viability, T/C",[33],0.18%
same,"viability, T/C",[34],0.2%
same,"viability, T/C",[35],0.27%
same,"viability, T/C",[36],0.26%
same,"viability, T/C",[37],0.1%
same,"viability, T/C",[38],0.32%
same,"viability, T/C",[39],0.16%
same,"viability, T/C",[40],0.14%
same,"viability, T/C",[41],0.18%
same,"viability, T/C",[42],2.46%
CC1(C)CCC(CN2CCN(c3ccc(C(=O)NS(=O)(=O)c4ccc(NCC5CCOCC5)c([N+](=O)[O-])c4)c(Oc4cnc5[nH]ccc5c4)c3)CC2)=C(c2ccc(Cl)cc2)C1 + CNC(=O)c1ccc(Nc2nc(OC3CCCC3)c3c(-c4ccc5nc(C)oc5c4)c[nH]c3n2)c(OC)c1,IC50,[1],7610 nM
same,IC50,[2],8100 nM
same,IC50,[3],5320 nM
same,IC50,[4],3200 nM
same,IC50,[5],< 31.6 nM
same,IC50,[6],< 31.6 nM
same,"viability, T/C",[7],104%
same,"viability, T/C",[8],103%
same,"viability, T/C",[9],105%
same,"viability, T/C",[10],92.7%
same,"viability, T/C",[11],117%
same,"viability, T/C",[12],33%
same,"viability, T/C",[13],95.8%
same,"viability, T/C",[14],89.4%
same,"viability, T/C",[15],86.7%
same,"viability, T/C",[16],84.2%
same,"viability, T/C",[17],94.6%
same,"viability, T/C",[18],41.1%
same,"viability, T/C",[19],56.3%
same,"viability, T/C",[20],67.9%
same,"viability, T/C",[21],72.4%
same,"viability, T/C",[22],62.5%
same,"viability, T/C",[23],51%
same,"viability, T/C",[24],44.2%
same,"viability, T/C",[25],51.8%
same,"viability, T/C",[26],51.5%
same,"viability, T/C",[27],50.6%
same,"viability, T/C",[28],46.1%
same,"viability, T/C",[29],51.1%
same,"viability, T/C",[30],34.1%
same,"viability, T/C",[31],46.2%
same,"viability, T/C",[32],48.4%
same,"viability, T/C",[33],39.1%
same,"viability, T/C",[34],41.6%
same,"viability, T/C",[35],43.8%
same,"viability, T/C",[36],39.8%
same,"viability, T/C",[37],40.5%
same,"viability, T/C",[38],51%
same,"viability, T/C",[39],45.6%
same,"viability, T/C",[40],47.7%
same,"viability, T/C",[41],57.2%
same,"viability, T/C",[42],31.8%
